Data from ChEMBL document CHEMBL1221406, “Germacrane-type sesquiterpenoids from the roots of Valeriana officinalis var. latifolia” (J Nat Prod, 2010).
Activity calls are given as the source filed them. The rule behind the calls is not given here.

What follows are molecules tested against Acetylcholinesterase (Homo sapiens) (UniProt P22303) (assay: Inhibition of AchE at 100 uM after 30 mins by Ellman's method).
Acetylcholinesterase (Homo sapiens), sequence (P22303 whole entry): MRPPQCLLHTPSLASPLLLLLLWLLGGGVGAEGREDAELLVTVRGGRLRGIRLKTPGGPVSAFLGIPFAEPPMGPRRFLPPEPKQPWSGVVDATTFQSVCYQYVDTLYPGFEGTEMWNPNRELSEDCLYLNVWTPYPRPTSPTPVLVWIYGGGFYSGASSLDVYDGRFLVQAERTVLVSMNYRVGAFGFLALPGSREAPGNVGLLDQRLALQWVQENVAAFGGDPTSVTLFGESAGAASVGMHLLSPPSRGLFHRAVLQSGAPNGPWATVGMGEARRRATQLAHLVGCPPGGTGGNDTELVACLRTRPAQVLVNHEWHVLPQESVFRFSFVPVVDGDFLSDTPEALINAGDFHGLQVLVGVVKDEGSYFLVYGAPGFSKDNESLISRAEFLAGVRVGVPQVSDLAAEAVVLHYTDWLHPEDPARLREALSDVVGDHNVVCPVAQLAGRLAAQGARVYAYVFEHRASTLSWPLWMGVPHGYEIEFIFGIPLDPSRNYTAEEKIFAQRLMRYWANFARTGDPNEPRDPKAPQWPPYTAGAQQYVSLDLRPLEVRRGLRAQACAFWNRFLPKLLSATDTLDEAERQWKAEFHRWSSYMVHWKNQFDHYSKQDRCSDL

SMILES	inhibition
C/C1=C\CC/C(C(=O)O)=C/[C@@H]2[C@H](CC1)C2(C)C	inactive
CC(=O)OC[C@@]12CC[C@@H]3[C@H](/C=C(/C=O)CC[C@H]1O2)C3(C)C	inactive
CC(=O)O[C@H]1C/C(C)=C/CC/C(C(=O)O)=C/[C@@H]2[C@H]1C2(C)C	inactive
C=C1CC[C@H]2[C@@H](/C=C(\C(=O)O)CC[C@@H]1O)C2(C)C	inactive
CC(=O)O[C@H]1C[C@@]2(C)O[C@@H]2CC/C(C=O)=C\[C@H]2[C@@H]1C2(C)C	inactive
CC1(C)[C@@H]2CC[C@@]3(C=O)O[C@@H]3CC/C(C=O)=C\[C@@H]21	inactive
CC(=O)OC/C1=C\CC/C(C=O)=C\[C@@H]2[C@@H](CC1)C2(C)C	inactive
CC1(C)[C@@H]2CC[C@@]3(C)O[C@@H]3CC/C(C=O)=C\[C@@H]21	25.9%
C/C1=C\CC/C(C=O)=C\[C@H]2[C@@H](C[C@H]1O)C2(C)C	inactive
